Data as given in patent publication US20170105953A1, “METHOD FOR SUPPRESSING DIABETES AND/OR HEPATIC LIPIDS USING TORMENTIC ACID” (priority 2015, published 2017).
Where “and” joins values, the source holds several entries; their conditions need not be identical. Equal values may be shown once.

Legend:
[1] = oral glucose tolerance test (OGTT) in normal mice; type: in vivo; details: 12 h fasted ICR mice; 0.2, 0.4 and 0.8 g/kg orally 30 min before oral glucose load 1 g/kg; from 30 to 120 min
Experimental: For part 1, an oral glucose tolerance test (OGTT) was performed on 12 h fasted ICR mice (n=5) that were allowed access to 0.2, 0.4, and 0.8 g/kg PTA or an equivalent amount of vehicle (water), which were given orally 30 min before an oral glucose load (1 g/kg body wt). The control group was given glucose, whereas the normal group was not. Blood samples were collected from the retro-orbital sinus of fasted mice at the time of the glucose administration (0) and every 30 min until 120 min after glucose administration.

[2] = hepatic lipids in high-fat diet-fed mice; type: in vivo; details: HF diet-fed C57BL/6J mice, mean ± SE, n=9
Description: (§1) For part 2, C57BL/6J mice (4 weeks old) were obtained from the National Laboratory Animal Breeding and Research Center. The mice were divided randomly into two groups after 7 days acclimation. The control (CON) group (n=9) was fed a low-fat diet (diet 12450B, Research Diets, Inc., New Brunswick, N.J., USA), whereas the experimental group was fed a 45% high-fat diet (diet 12451, Research Diets, Inc.) for 12 weeks. The compositions of the experimental diets are given in previous studies. After 8 weeks, the high-fat treated mice were randomly subdivided into four groups (n=9) including PTA1 (0.06 g/kg/day), PTA2 (0.12 g/kg/day) or rosiglitazone (Rosi; 1% methylcellulose, 10 mg/kg body weight) (GlaxoSmithKline) or vehicle and treated by oral gavage one time per day from the 9th to 12th weeks, while the mice were still on the high-fat diet, whereas the CON and high-fat control (HF) mice were treated with vehicle only. At the end, food was withheld from the animals (from 10 p.m. to 10 a.m.). The next day, the mice were sacrificed for blood and tissue collection and analysis. Livers, skeletal muscles, and white adipose tissues (WATs) (including epididymal, mesenteric, and retroperitoneal WAT) were weighed and excised, followed by immediate freezing, and kept at −80° C. for target gene analysis. Heparin (30 units/mL) (Sigma) was added to blood samples. Plasma samples were collected within 30 min by centrifugation at 1600 g for 15 min at 4° C. Plasma was obtained for insulin and leptin assay.
Hepatic lipids were extracted using a previously described protocol. For the hepatic lipid extraction, 0.375 g liver samples were homogenized with 1 mL of distilled water for 5 min. Finally, the dried pellet was resuspended in 0.5 mL of ethanol and analyzed using a triglycerides kit as used for serum lipids.

[3] = tested on: epididymal WAT and liver tissue; assay: histopathology of epididymal WAT and liver tissue; type: in vivo; details: HF diet-fed C57BL/6J mice; for hepatocellular ballooning mean score: grade 0 none, 1 a few cells, 2 many cells
Description: as §1
Small pieces of epididymal WAT and liver tissue were fixed with formalin (200 g/kg) neutral buffered solution and embedded in paraffin. Sections (8 μm) were cut and stained with hematoxylin and eosin. For microscopic examination, a microscope (Leica, DM2500) was used, and the images were taken using a Leica Digital camera (DFC-425-C).

PEPCK = assay: semiquantitative RT-PCR, liver PEPCK mRNA; type: in vivo, C57BL/6J mice; details: HF diet-fed mice, normalized to GAPDH, vs HF group
Description: (§2) For part 2, C57BL/6J mice (4 weeks old) were obtained from the National Laboratory Animal Breeding and Research Center. The mice were divided randomly into two groups after 7 days acclimation. The control (CON) group (n=9) was fed a low-fat diet (diet 12450B, Research Diets, Inc., New Brunswick, N.J., USA), whereas the experimental group was fed a 45% high-fat diet (diet 12451, Research Diets, Inc.) for 12 weeks. The compositions of the experimental diets are given in previous studies. […]
(§3) Total RNA from the liver tissue was isolated with a Trizol reagent (Molecular Research Center, Inc., Cincinnati, Ohio, USA) according to the manufacturer's directions. The integrity of the extracted total RNA was examined by 2% agarose gel electrophoresis, and the RNA concentration was determined by ultraviolet (UV) light absorbency at 260 and 280 nm (spectrophotometer U-2800A, Hitachi). […] The relative density of the band was evaluated using AlphaDigiDoc 1201 software (Alpha Innotech Co., San Leandro, Calif., USA). All of the measured PCR products were normalized to the amount of cDNA of GAPDH in each sample. […]

DGAT2 = assay: semiquantitative RT-PCR, liver DGAT2 mRNA; type: in vivo, C57BL/6J mice; details: HF diet-fed mice, normalized to GAPDH, vs HF group
Description: as §2, §3

11β-HSD1 = assay: semiquantitative RT-PCR, liver 11β-HSD1 mRNA; type: in vivo, C57BL/6J mice; details: HF diet-fed mice, normalized to GAPDH, vs HF group
Description: as §2, §3

SREBP1c = assay: semiquantitative RT-PCR, liver SREBP1c mRNA; type: in vivo, C57BL/6J mice; details: HF diet-fed mice, normalized to GAPDH, vs HF group
Description: as §2, §3

FAS = assay: semiquantitative RT-PCR, liver FAS mRNA; type: in vivo, C57BL/6J mice; details: HF diet-fed mice, normalized to GAPDH, vs HF group
Description: as §2, §3

[4] = PTA1 0.06 g/kg/day oral gavage 4 weeks
[5] = PTA2 0.12 g/kg/day oral gavage 4 weeks

C[C@@H]1CC[C@]2(C(=O)O)CC[C@]3(C)C(=CC[C@@H]4[C@@]5(C)C[C@@H](O)[C@H](O)C(C)(C)[C@@H]5CC[C@]43C)[C@@H]2[C@]1(C)O [PTA, tormentic acid]
levels of blood glucose (OGTT) [1]: decreased | Liver lipids: Total lipid [2, 4]: 80.1 ± 4.6 mg/g | Liver lipids: Triacylglycerol [2, 4]: 51.7 ± 5.1 µmol/g | Liver lipids: Total lipid [2, 5]: 68.2 ± 5.9 mg/g | Liver lipids: Triacylglycerol [2, 5]: 35.2 µmol/g and 35.2 ± 4.9 µmol/g | average area of adipocytes (epididymal WAT) [3, 4]: 2380.9±108.6 μm2 | hepatocellular ballooning mean score [3, 4]: 1.0±0.2 | average area of adipocytes (epididymal WAT) [3, 5]: 2243.2±100.9 μm^2 | hepatocellular ballooning mean score [3, 5]: 0.7±0.2 | mRNA level of PEPCK in liver (PEPCK; PTA1 0.06 g/kg/day 4 weeks): significantly decrease | mRNA level of PEPCK in liver (PEPCK; PTA2 0.12 g/kg/day 4 weeks): significantly decrease | mRNA level of DGAT2 in liver (DGAT2; PTA1 0.06 g/kg/day 4 weeks): significantly decrease | mRNA level of DGAT2 in liver (DGAT2; PTA2 0.12 g/kg/day 4 weeks): significantly decrease | mRNA level of 11β-HSD1 in liver (11β-HSD1; PTA1 0.06 g/kg/day 4 weeks): significantly decrease | mRNA level of 11β-HSD1 in liver (11β-HSD1; PTA2 0.12 g/kg/day 4 weeks): significantly decrease | mRNA level of SREBP1c in liver (SREBP1c; PTA1 0.06 g/kg/day 4 weeks): significantly decrease | mRNA level of SREBP1c in liver (SREBP1c; PTA2 0.12 g/kg/day 4 weeks): significantly decrease | mRNA level of FAS in liver (FAS; PTA1 0.06 g/kg/day 4 weeks): significantly decrease | mRNA level of FAS in liver (FAS; PTA2 0.12 g/kg/day 4 weeks): significantly decrease
